Test results: patent publication US10294202B2, “Pyrrolidinones as herbicides” (FMC Corporation, priority 2013, dated 2019)

Experiments:
[1] = test system: barnyardgrass; assay: Test A pre-/postemergence herbicide test; assay type: in vivo, Echinochloa crus-galli
Method in brief: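 Seeds sown in loam soil/sand blend received a preemergence directed soil spray of test chemical in non-phytotoxic solvent with surfactant; postemergence plants (2–10 cm, one- to two-leaf stage) were sprayed with the same formulation. After about 10 days in greenhouse, injury was rated visually versus untreated controls, 0 (no effect) to 100 (complete control).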

[2] = test system: blackgrass; assay: Test C pre-/postemergence herbicide test; assay type: in vivo, Alopecurus myosuroides
Method in brief: (§1)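 Visual rating, 0 (no effect) to 100 (complete control), versus untreated controls after 13 to 15 days in the greenhouse. Pre: seeds in loam/sand, sprayed at planting. Post: 1- to 4-leaf plants (2 to 18 cm) in peat-based mix. Compounds in non-phytotoxic solvent plus surfactant.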

[3] = test system: wheat (winter wheat); assay: Test C pre-/postemergence herbicide test; assay type: in vivo, Triticum aestivum
Method in brief: as §1

[4] = test system: galium; assay: Test C pre-/postemergence herbicide test; assay type: in vivo, Galium aparine
Method in brief: as §1

[5] = test system: crabgrass, large; assay: Test C pre-/postemergence herbicide test; assay type: in vivo, Digitaria sanguinalis
Method in brief: as §1

[6] = test system: foxtail, giant; assay: Test C pre-/postemergence herbicide test; assay type: in vivo, Setaria faberii
Method in brief: as §1

[7] = test system: pigweed; assay: Test C pre-/postemergence herbicide test; assay type: in vivo, Amaranthus retroflexus
Method in brief: as §1

[8] = test system: soybean; assay: Test C pre-/postemergence herbicide test; assay type: in vivo, Glycine max
Method in brief: as §1

[9] = test system: barnyardgrass; assay: Test C pre-/postemergence herbicide test; assay type: in vivo, Echinochloa crus-galli
Method in brief: as §1

[10] = test system: oilseed rape; assay: Test C pre-/postemergence herbicide test; assay type: in vivo, Brassica napus
Method in brief: as §1

[11] = test system: oat, wild; assay: Test C pre-/postemergence herbicide test; assay type: in vivo, Avena fatua; settings: Postemergence
Method in brief: as §1

[12] = test system: velvetleaf; assay: Test C pre-/postemergence herbicide test; assay type: in vivo, Abutilon theophrasti
Method in brief: as §1

[13] = Postemergence, 31 g ai/ha, scale 0 (no effect) to 100 (complete control)
[14] = Postemergence, 62 g ai/ha, scale 0 to 100 (0 no effect, 100 complete control)
[15] = Postemergence, 125 g ai/ha, scale 0 to 100 (0 no effect, 100 complete control)
[16] = Postemergence, 250 g ai/ha, scale 0 to 100 (0 no effect, 100 complete control)
[17] = Preemergence, 31 g ai/ha, scale 0 to 100, 0 is no effect and 100 is complete control
[18] = Preemergence, 62 g ai/ha, scale 0 to 100
[19] = Preemergence, 125 g ai/ha, scale 0 to 100 (0 no effect, 100 complete control)

Cc1ccccc1NC(=O)C1C(=O)NCC1c1cccc(C(F)(F)F)c1 (racemic) [Compound 109]
Plant response rating, Barnyardgrass ([1]; Postemergence, 125 g ai/ha, 0 to 100 scale, 0 no effect, 100 complete control): 90 | Plant response rating, Barnyardgrass ([1]; Postemergence, 500 g ai/ha, 0 to 100 scale (0 no effect, 100 complete control)): 90 | Barnyardgrass plant response rating ([1]; Preemergence, 125 g ai/ha, visual rating on 0 to 100 scale (0 no effect, 100 complete control)): 80 | Plant response rating, Barnyardgrass ([1]; preemergence, 500 g ai/ha, 0 to 100 scale (0 no effect, 100 complete control)): 90 | Plant response rating, Blackgrass [2, 13]: 0 | Plant response rating, Blackgrass [2, 14]: 0 | Plant response rating, Blackgrass [2, 15]: 0 | Plant response rating, Blackgrass [2, 16]: 0 | Blackgrass plant response rating [2, 17]: 0 | Plant response rating, Blackgrass [2, 18]: 60 | Plant response rating, Blackgrass [2, 19]: 90 | Plant response rating (scale of 0 to 100), Blackgrass ([2]; Preemergence, 250 g ai/ha): 95 | Plant response rating, Wheat [3, 13]: 0 | Plant response rating, Wheat [3, 14]: 0 | Plant response rating, Wheat [3, 15]: 0 | Plant response rating, Wheat [3, 16]: 0 | Wheat plant response rating [3, 17]: 0 | Plant response rating, Wheat [3, 18]: 10 | Plant response rating, Wheat [3, 19]: 50 | Plant response rating (scale of 0 to 100), Wheat ([3]; Preemergence, 250 g ai/ha): 85 | Plant response rating, Galium [4, 13]: 0 | Plant response rating, Galium [4, 14]: 0 | Plant response rating, Galium [4, 15]: 30 | Plant response rating, Galium [4, 16]: 30 | Galium plant response rating [4, 17]: 60 | Plant response rating, Galium [4, 18]: 100 | Plant response rating, Galium [4, 19]: 50 | Plant response rating (scale of 0 to 100), Galium ([4]; Preemergence, 250 g ai/ha): 100 | Plant response rating, Crabgrass, Large [5, 13]: 10 | Plant response rating, Crabgrass, Large [5, 14]: 10 | Plant response rating, Crabgrass, Large [5, 15]: 40 | Plant response rating, Crabgrass, Large [5, 16]: 70 | Crabgrass, Large plant response rating [5, 17]: 98 | Plant response rating, Crabgrass, Large [5, 18]: 100 | Plant response rating, Crabgrass, Large [5, 19]: 100 | Plant response rating (scale of 0 to 100), Crabgrass, Large ([5]; Preemergence, 250 g ai/ha): 100 | Plant response rating, Foxtail, Giant [6, 13]: 60 | Plant response rating, Foxtail, Giant [6, 14]: 15 | Plant response rating, Foxtail, Giant [6, 15]: 50 | Plant response rating, Foxtail, Giant [6, 16]: 70 | Foxtail, Giant plant response rating [6, 17]: 90 | Plant response rating, Foxtail, Giant [6, 18]: 95 | Plant response rating, Foxtail, Giant [6, 19]: 98 | Plant response rating (scale of 0 to 100), Foxtail, Giant ([6]; Preemergence, 250 g ai/ha): 100 | Plant response rating, Pigweed [7, 13]: 5 | Plant response rating, Pigweed [7, 14]: 5 | Plant response rating, Pigweed [7, 15]: 5 | Plant response rating, Pigweed [7, 16]: 10 | Pigweed plant response rating [7, 17]: 30 | Plant response rating, Pigweed [7, 18]: 0 | Plant response rating, Pigweed [7, 19]: 0 | Plant response rating (scale of 0 to 100), Pigweed ([7]; Preemergence, 250 g ai/ha): 20 | Plant response rating, Soybean [8, 13]: 0 | Plant response rating, Soybean [8, 14]: 0 | Plant response rating, Soybean [8, 15]: 5 | Plant response rating, Soybean [8, 16]: 5 | Soybean plant response rating [8, 17]: 100 | Plant response rating, Soybean [8, 18]: 0 | Plant response rating, Soybean [8, 19]: 55 | Plant response rating (scale of 0 to 100), Soybean ([8]; Preemergence, 250 g ai/ha): 0 | Plant response rating, Barnyardgrass [9, 13]: 0 | Plant response rating, Barnyardgrass [9, 14]: 0 | Plant response rating, Barnyardgrass [9, 15]: 0 | Plant response rating, Barnyardgrass [9, 16]: 45 | Barnyardgrass plant response rating [9, 17]: 70 | Plant response rating, Barnyardgrass [9, 18]: 85 | Plant response rating, Barnyardgrass [9, 19]: 95 | Plant response rating (scale of 0 to 100; 0 is no effect, 100 is complete control), Barnyardgrass ([9]; Preemergence, 250 g ai/ha): 98 | Plant response rating, Oilseed Rape [10, 13]: 0 | Plant response rating, Oilseed Rape [10, 14]: 0 | Plant response rating, Oilseed Rape [10, 15]: 5 | Plant response rating, Oilseed Rape [10, 16]: 5 | Oilseed Rape plant response rating [10, 17]: 0 | Plant response rating, Oilseed Rape [10, 18]: 0 | Plant response rating, Oilseed Rape [10, 19]: 5 | Plant response rating (scale of 0 to 100), Oilseed Rape ([10]; Preemergence, 250 g ai/ha): 40 | Plant response rating, Oat, Wild ([11]; 31 g ai/ha, scale 0 (no effect) to 100 (complete control)): 0 | Plant response rating, Oat, Wild ([11]; 62 g ai/ha, scale 0 to 100 (0 no effect, 100 complete control)): 0 | Plant response rating, Oat, Wild ([11]; 125 g ai/ha, scale 0 to 100 (0 no effect, 100 complete control)): 0 | Plant response rating, Oat, Wild ([11]; 250 g ai/ha, scale 0 to 100 (0 no effect, 100 complete control)): 0 | Plant response rating, Velvetleaf [12, 13]: 0 | Plant response rating, Velvetleaf [12, 14]: 0 | Plant response rating, Velvetleaf [12, 15]: 0 | Plant response rating, Velvetleaf [12, 16]: 5 | Velvetleaf plant response rating [12, 17]: 0 | Plant response rating, Velvetleaf [12, 18]: 0 | Plant response rating, Velvetleaf [12, 19]: 0 | Plant response rating (scale of 0 to 100), Velvetleaf ([12]; Preemergence, 250 g ai/ha): 10
